Literature values, collected in US11053214B2, “Compositions and methods related to pyridinoylpiperidine 5-HT1F agonists” (COLUCID PHARMACEUTICALS, INC., priority 2016, dated 2021).

Columns and labels:
migraine = settings: early clinical proof-of-concept study
[1] = tested on: other 5-HT1 receptor subtypes
rabbit saphenous vein = settings: concentrations up to 0.1 mM

Structure (SMILES)	efficacy in the acute treatment of migraine (migraine)	affinity higher for 5-HT1F receptors than for other 5-HT1 receptor subtypes [1]	constriction of rabbit saphenous vein (rabbit saphenous vein)
CN1CCC(c2c[nH]c3ccc(NC(=O)c4ccc(F)cc4)cc23)CC1 [LY334370]	proved effective		
CN1CCC(C(=O)c2cccc(NC(=O)c3c(F)cc(F)cc3F)n2)CC1.O=C(O)CCC(=O)O [Compound I, hemisuccinate salt of 2,4,6-trifluoro-N-[6-(1-methyl-piperidine-4-carbonyl)-pyridin-2-yl]-benzamide]		more than 450 fold	did not constrict
